Source: patent US10047096B2, “Substituted pyridobenzodiazepinone-derivatives and use thereof” (Bayer Pharma Aktiengesellschaft, priority 2014, dated 2018)
Where a name gives a salt, the structure may show the parent alone.

target: human PDGFRβ (Homo sapiens (Human), UniProt P09619); test: PDGFRβ kinase assay (PDGFRβ-HTRF); format: biochemical; conditions: 10 μM ATP; some mean values from multiple determinations
Method: The PDGFRβ-inhibitory activity of the inventive compounds was determined in the PDGFRβ-HTRF assay described hereinafter.
The kinase used was a recombinant fusion protein composed of N-terminal GST and a C-terminal fragment of human PDGFRβ (amino acids R561-L1106), expressed in baculovirus-infected insect cells (Sf9) and purified by affinity chromatography (from ProQinase GmbH, Freiburg, Germany). The substrate used for the kinase reaction was biotinylated poly-Glu,Tyr (4:1) copolymer (from Cisbio Bioassays, Codolet, France).
For the assay, 50 nl of a 100-fold concentrated solution of the test substance in DMSO was pipetted into a black “low-volume 384 well” microtitre plate (from Greiner Bio-One, Frickenhausen, Germany), then 2 μl of a solution of PDGFRβ in assay buffer [50 mM HEPES/NaOH pH 7.5, 10 mM MgCl2, 2.5 mM dithiothreitol, 0.01% (v/v) Triton-X100 (from Sigma)] was added and the mixture was incubated for 15 min, in order to enable preliminary binding of the substance to the enzyme before the kinase reaction. […] The resulting mixture was incubated at 22° C. for 1 h to allow formation of a complex of the biotinylated phosphorylated substrate and the detection reagents.
Subsequently, the amount of the phosphorylated substrate was evaluated by measuring the resonance energy transfer from the PT66-Eu chelate to the streptavidin-XL665. […] The IC50 values were calculated by a 4-parameter fit.

Chain of human PDGFRβ (P09619 561-1106): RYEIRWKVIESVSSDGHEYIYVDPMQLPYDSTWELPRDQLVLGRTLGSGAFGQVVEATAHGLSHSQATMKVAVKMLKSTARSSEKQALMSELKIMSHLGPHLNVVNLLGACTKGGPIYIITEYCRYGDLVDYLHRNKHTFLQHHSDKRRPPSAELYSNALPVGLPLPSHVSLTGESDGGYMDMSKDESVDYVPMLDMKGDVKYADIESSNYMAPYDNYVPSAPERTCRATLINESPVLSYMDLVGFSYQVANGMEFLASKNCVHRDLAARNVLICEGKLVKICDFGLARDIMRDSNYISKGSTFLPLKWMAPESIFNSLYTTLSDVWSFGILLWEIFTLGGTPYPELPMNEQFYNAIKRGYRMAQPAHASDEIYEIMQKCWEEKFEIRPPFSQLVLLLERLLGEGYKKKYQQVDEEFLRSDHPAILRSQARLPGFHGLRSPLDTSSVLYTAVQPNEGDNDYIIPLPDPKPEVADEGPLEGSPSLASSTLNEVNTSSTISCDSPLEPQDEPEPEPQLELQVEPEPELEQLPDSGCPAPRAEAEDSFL

SMILES	IC50 [nM]
CCOC(=O)Nc1ccc(Nc2ccnc3c2C(=O)Nc2cc(C#N)ccc2N3)cc1O [Example 4, Ethyl {4-[(8-cyano-5-oxo-6,11-dihydro-5H-pyrido[2,3-b][1,5]benzodiazepin-4-yl)amino]-2-hydroxyphenyl}carbamate]	352
N#Cc1ccc2c(c1)NC(=O)c1c(Nc3ccc(NS(=O)(=O)c4ccccc4)c(O)c3)ccnc1N2 [Example 6, N-{4-[(8-Cyano-5-oxo-6,11-dihydro-5H-pyrido[2,3-b][1,5]benzodiazepin-4-yl)amino]-2-hydroxyphenyl}benzenesulphonamide]	689
N#Cc1ccc2c(c1)NC(=O)c1c(Nc3cc(O)c(Br)cc3F)ccnc1N2 [Example 7, 4-[(4-Bromo-2-fluoro-5-hydroxyphenyl)amino]-5-oxo-6,11-dihydro-5H-pyrido[2,3-b][1,5]benzodiazepine-8-carbonitrile]	9.47
N#Cc1ccc2c(c1)NC(=O)c1c(Nc3cc(O)c(F)c(F)c3)ccnc1N2 [Example 8, 4-[(3,4-Difluoro-5-hydroxyphenyl)amino]-5-oxo-6,11-dihydro-5H-pyrido[2,3-b][1,5]benzodiazepine-8-carbonitrile]	4.76
COc1cc(O)cc(Nc2ccnc3c2C(=O)Nc2cc(C#N)ccc2N3)c1 [Example 9, 4-[(3-Hydroxy-5-methoxyphenyl)amino]-5-oxo-6,11-dihydro-5H-pyrido[2,3-b][1,5]benzodiazepine-8-carbonitrile]	3.83
N#Cc1ccc2c(c1)NC(=O)c1c(Nc3cc(O)c(Cl)cc3Cl)ccnc1N2 [Example 10, 4-[(2,4-Dichloro-5-hydroxyphenyl)amino]-5-oxo-6,11-dihydro-5H-pyrido[2,3-b][1,5]benzodiazepine-8-carbonitrile]	65.9
N#Cc1ccc2c(c1)NC(=O)c1c(Nc3ccc(Cl)c(O)c3)ccnc1N2 [Example 11, 4-[(4-Chloro-3-hydroxyphenyl)amino]-5-oxo-6,11-dihydro-5H-pyrido[2,3-b][1,5]benzodiazepine-8-carbonitrile]	4.03
N#Cc1ccc2c(c1)NC(=O)c1c(Nc3ccc(O)c(O)c3)ccnc1N2 [Example 12, 4-[(3,4-Dihydroxyphenyl)amino]-5-oxo-6,11-dihydro-5H-pyrido[2,3-b][1,5]benzodiazepine-8-carbonitrile]	84.4
N#Cc1ccc2c(c1)NC(=O)c1c(Nc3cc(O)ccc3F)ccnc1N2 [Example 13, 4-[(2-Fluoro-5-hydroxyphenyl)amino]-5-oxo-6,11-dihydro-5H-pyrido[2,3-b][1,5]benzodiazepine-8-carbonitrile]	21.9
Cc1ccc(O)cc1Nc1ccnc2c1C(=O)Nc1cc(CNCC(F)(F)F)ccc1N2 [Example 14, 4-[(5-Hydroxy-2-methylphenyl)amino]-8-{[(2,2,2-trifluoroethyl)amino]methyl}-6,11-dihydro-5H-pyrido[2,3-b][1,5]benzodiazepin-5-one]	9.14
Cc1ccc(O)cc1Nc1ccnc2c1C(=O)Nc1cc(CNCc3cccc(Cl)c3)ccc1N2 [Example 15, 8-{[(3-Chlorobenzyl)amino]methyl}-4-[(5-hydroxy-2-methylphenyl)amino]-6,11-dihydro-5H-pyrido[2,3-b][1,5]benzodiazepin-5-one]	5.77
Cc1ccc(O)cc1Nc1ccnc2c1C(=O)Nc1cc(CNCC(N)=O)ccc1N2 [Example 16, N^2-({4-[(5-Hydroxy-2-methylphenyl)amino]-5-oxo-6,11-dihydro-5H-pyrido[2,3-b][1,5]benzodiazepin-8-yl}methyl)glycinamide]	7.05
Cc1ccc(O)cc1Nc1ccnc2c1C(=O)Nc1cc(CNCCCCO)ccc1N2 [Example 17, 8-{[(4-Hydroxybutyl)amino]methyl}-4-[(5-hydroxy-2-methylphenyl)amino]-6,11-dihydro-5H-pyrido[2,3-b][1,5]benzodiazepin-5-one]	5.63
Cc1ccc(O)cc1Nc1ccnc2c1C(=O)Nc1cc(CNCCN3CCOCC3)ccc1N2 [Example 18, 4-[(5-Hydroxy-2-methylphenyl)amino]-8-({[2-(morpholin-4-yl)ethyl]amino}methyl)-6,11-dihydro-5H-pyrido[2,3-b][1,5]benzodiazepin-5-one]	5.19
Cc1ccc(O)cc1Nc1ccnc2c1C(=O)Nc1cc(CNC3CCC3)ccc1N2 [Example 20, 8-[(Cyclobutylamino)methyl]-4-[(5-hydroxy-2-methylphenyl)amino]-6,11-dihydro-5H-pyrido[2,3-b][1,5]benzodiazepin-5-one]	2.89
CNCc1ccc2c(c1)NC(=O)c1c(Nc3cc(O)ccc3C)ccnc1N2 [Example 22, 4-[(5-Hydroxy-2-methylphenyl)amino]-8-[(methylamino)methyl]-6,11-dihydro-5H-pyrido[2,3-b][1,5]benzodiazepin-5-one]	2.84
CCCCNCc1ccc2c(c1)NC(=O)c1c(Nc3cc(O)ccc3C)ccnc1N2 [Example 23, 8-[(Butylamino)methyl]-4-[(5-hydroxy-2-methylphenyl)amino]-6,11-dihydro-5H-pyrido[2,3-b][1,5]benzodiazepin-5-one]	2.98
Cc1ccc(O)cc1Nc1ccnc2c1C(=O)Nc1cc(CNCCO)ccc1N2 [Example 24, 8-{[(2-Hydroxyethyl)amino]methyl}-4-[(5-hydroxy-2-methylphenyl)amino]-6,11-dihydro-5H-pyrido[2,3-b][1,5]benzodiazepin-5-one]	4.74
CCNCc1ccc2c(c1)NC(=O)c1c(Nc3cc(O)ccc3C)ccnc1N2 [Example 25, 8-[(Ethylamino)methyl]-4-[(5-hydroxy-2-methylphenyl)amino]-6,11-dihydro-5H-pyrido[2,3-b][1,5]benzodiazepin-5-one]	3.25
Cc1ccc(O)cc1Nc1ccnc2c1C(=O)Nc1cc(CNc3ccccc3)ccc1N2 [Example 26, 8-Anilinomethyl-4-[(5-hydroxy-2-methylphenyl)amino]-6,11-dihydro-5H-pyrido[2,3-b][1,5]benzodiazepin-5-one]	60.3
Cc1cc(F)c(Nc2ccnc3c2C(=O)Nc2cc(C#N)ccc2N3)cc1O [Example 27, 4-[(2-Fluoro-5-hydroxy-4-methylphenyl)amino]-5-oxo-6,11-dihydro-5H-pyrido[2,3-b][1,5]benzodiazepine-8-carbonitrile]	15.3
Cc1cc(F)c(Nc2ccnc3c2C(=O)Nc2cc(CN(C)C)ccc2N3)cc1O [Example 33, 8-[(Dimethylamino)methyl]-4-[(2-fluoro-5-hydroxy-4-methylphenyl)amino]-6,11-dihydro-5H-pyrido[2,3-b][1,5]benzodiazepin-5-one]	4.3
N#Cc1ccc2c(c1)NC(=O)c1c(Nc3cccc(O)c3)ccnc1N2 [Example 35, 4-[(3-Hydroxyphenyl)amino]-5-oxo-6,11-dihydro-5H-pyrido[2,3-b][1,5]benzodiazepine-8-carbonitrile]	12.6
N#Cc1ccc2c(c1)NC(=O)c1c(Nc3cc(O)ccc3Cl)ccnc1N2 [Example 36, 4-[(2-Chloro-5-hydroxyphenyl)amino]-5-oxo-6,11-dihydro-5H-pyrido[2,3-b][1,5]benzodiazepine-8-carbonitrile]	20.1

same assay, conditions: 10 μM ATP; some mean values from multiple determinations; acetic acid salt

SMILES	IC50 [nM]
Cc1cc(F)c(Nc2ccnc3c2C(=O)Nc2cc(CNC4CCCC4)ccc2N3)cc1O [Example 34, 8-[(Cyclopentylamino)methyl]-4-[(2-fluoro-5-hydroxy-4-methylphenyl)amino]-6,11-dihydro-5H-pyrido[2,3-b][1,5]benzodiazepin-5-one acetic acid salt]	5.06
